From patent publication US20230286983A1 (4E Therapeutics, Inc., priority 2020, published 2023)

Key:
MNK2 = MNK2 (Homo sapiens, UniProt Q9HBH9); test: MNK2 substrate phosphorylation assay; type: biochemical; settings: recombinant human kinase
P-gp (human MDR1, ABCB1) = test: MDCK-MDR1 permeability (blood brain barrier permeability); type: in vitro ADME, Canine; settings: dog; for efflux ratio at 5 μM: MDCK-MDR1, 5 μM, read-out: Efflux ratio (ratio B-A/A-B); for Papp A→B at 5 μM: MDCK-MDR1, Apical to basolateral transport; for Papp A→B at 5 μM / Papp B→A at 5 μM: average of two experiments; for Papp B→A at 5 μM: MDCK-MDR1, Basolateral to apical transport
[1] = system: eIF4E phosphorylation at Serine 209 in the human embryonic kidney (HEK) 293 cell line; test: eIF4E phosphorylation in HEK 293 cells (fluorescent plate reader); type: cell-based; settings: eIF4E phosphorylation at Serine 209, 2 hours exposure
Procedure: The ability of MNK inhibitors described herein to inhibit eIF4E phosphorylation at Serine 209 in the human embryonic kidney (HEK) 293 cell line was tested by exposing the cells to compound for 2 hours and then measuring eIF4E phosphorylation with a phosphorylation-specific antibody in a fluorescent plate reader. These experiments were done with HEK-293 cells plated on 96 well plates. Following treatment, cells were fixed with ice cold methanol for 10 min and then washed in 1× phosphate buffered saline (PBS) and the permeabilized with 0.02% Triton X-100 in 10% normal goat serum made up in PBS. Primary antibody was applied overnight at a concentration dilution of 1:2000 (p-eIF4E antibody from Cell Signaling ab76256). Following washing, cells were then exposed to secondary antibody conjugated to alexa-fluor 488 and then visualized on a Syngergy HTX plate reader. Fluorescence for p-eIF4E was measured and normalized to total DAPI fluorescence to determine the percentage of eIF4E phosphorylation in each well. Data were plotted in Graphpad Prism V8 to determine concentration-response effects and calculate IC50 values.

[2] = Liver microsome stability, mouse; type: in vitro ADME; settings: for half-life: mouse, liver microsomes
MNK1 = MNK1 (Homo sapiens, UniProt Q9BUB5); test: MNK1 substrate phosphorylation assay; type: biochemical; settings: recombinant human kinase
[3] = Liver microsome stability, human; type: in vitro ADME; settings: liver microsomes; for half-life: read-out: Human liver microsomes t1/2
[4] = Liver microsome stability, rat; type: in vitro ADME; settings: Rat liver microsomes (#); for microsomal CLint: read-out: CLint rodent; for half-life: read-out: Rodent liver microsomes t1/2
[5] = mouse liver microsomes, Table 11b, read-out: T1/2

Sequence of MNK1 (Q9BUB5 whole entry): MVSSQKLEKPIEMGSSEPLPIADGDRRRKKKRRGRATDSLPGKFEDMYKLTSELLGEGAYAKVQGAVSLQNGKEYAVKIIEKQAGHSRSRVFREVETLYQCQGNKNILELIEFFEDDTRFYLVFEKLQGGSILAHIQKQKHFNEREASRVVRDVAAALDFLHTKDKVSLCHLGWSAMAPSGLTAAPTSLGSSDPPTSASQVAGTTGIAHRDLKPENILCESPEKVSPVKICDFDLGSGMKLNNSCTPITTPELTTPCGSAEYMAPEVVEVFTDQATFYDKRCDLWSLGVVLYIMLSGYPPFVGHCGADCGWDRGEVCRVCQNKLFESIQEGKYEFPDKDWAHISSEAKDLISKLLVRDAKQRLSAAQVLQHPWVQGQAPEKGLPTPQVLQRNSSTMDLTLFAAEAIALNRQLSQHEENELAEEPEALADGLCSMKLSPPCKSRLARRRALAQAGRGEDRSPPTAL
Sequence of MNK2 (Q9HBH9 whole entry): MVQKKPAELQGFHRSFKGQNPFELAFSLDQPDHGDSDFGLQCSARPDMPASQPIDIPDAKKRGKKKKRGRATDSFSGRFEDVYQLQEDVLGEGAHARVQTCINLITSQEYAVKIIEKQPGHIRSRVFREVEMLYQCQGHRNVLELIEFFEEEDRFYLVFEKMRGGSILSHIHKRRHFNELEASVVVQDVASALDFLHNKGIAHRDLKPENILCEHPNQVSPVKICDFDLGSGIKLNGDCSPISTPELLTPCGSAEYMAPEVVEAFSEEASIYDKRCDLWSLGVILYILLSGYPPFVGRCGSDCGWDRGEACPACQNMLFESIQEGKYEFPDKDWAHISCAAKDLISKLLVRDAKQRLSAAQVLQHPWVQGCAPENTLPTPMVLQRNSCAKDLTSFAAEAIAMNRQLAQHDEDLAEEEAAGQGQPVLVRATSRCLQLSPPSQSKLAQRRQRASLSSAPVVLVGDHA

| Structure (SMILES) | IC50 (MNK2) | IC50 (MNK1) | IC50 ([1]; Homo sapiens, HEK293, 2 h) | also measured |
| --- | --- | --- | --- | --- |
| Cc1cc(Nc2cc(N)ncn2)c(=O)n2c1C(=O)NC21Cc2ccccc2[C@@H]1F (single isomer, unassigned) [Compound 4ET-01-010A, 6-((6-Aminopyrimidin-4-yl)amino)-1′-fluoro-8-methyl-1′,3′-dihydro-2H-spiro[imidazo[1,5-a]pyridine-3,2′-indene]-1,5-dione] | 9.24 nM | 73.4 nM |  | efflux ratio at 5 μM (P-gp (human MDR1, ABCB1)): 1.5; Papp A→B at 5 μM (P-gp (human MDR1, ABCB1)): 42.7 ×10⁻⁶ cm/s; Papp B→A at 5 μM (P-gp (human MDR1, ABCB1)): 63.9 ×10⁻⁶ cm/s; IC50 [1]: 35.4 nM; half-life [2, 5]: 1.92 h |
| Cc1cc(Nc2cc(N)ncn2)c(=O)n2c1C(=O)NC21Cc2ccccc2[C@@H]1F (single isomer, unassigned) [Compound 4ET-01-010B, 6-((6-Aminopyrimidin-4-yl)amino)-1′-fluoro-8-methyl-1′,3′-dihydro-2H-spiro[imidazo[1,5-a]pyridine-3,2′-indene]-1,5-dione] | 96.6 nM | 348 nM |  | IC50 [1]: 71.3 nM |
| Cc1cc(Nc2cc(N)ncn2)c(=O)n2c1C(=O)NC21CCCC1 [Compound 4ET-01-001, 6′-((6-Aminopyrimidin-4-yl)amino)-8′-methyl-2′H-spiro[cyclopentane-1,3′-imidazo[1,5-a]pyridine]-1′,5′-dione] |  |  |  | IC50 ([1]; Homo sapiens, HEK293): 10.9 nM |
| CC1=CC2(CCC1)NC(=O)c1c(C)cc(Nc3cc(N)ncn3)c(=O)n12 (stereo not shown) [Compound 4ET-01-058, 6′-((6-Aminopyrimidin-4-yl)amino)-3,8′-dimethyl-2′H-spiro[cyclohexane-1,3′-imidazo[1,5-a]pyridin]-2-ene-1′,5′-dione] | 6.5 nM | 58.4 nM | 10.9 nM | efflux ratio at 5 μM (P-gp (human MDR1, ABCB1)): 1.1; Papp A→B at 5 μM (P-gp (human MDR1, ABCB1)): 57.8 ×10⁻⁶ cm/s; Papp B→A at 5 μM (P-gp (human MDR1, ABCB1)): 61.2 ×10⁻⁶ cm/s; half-life [2, 5]: 7.67 h |
| Cc1cc(Nc2cc(N3CCN(CCN(C)C)CC3)ncn2)c(=O)n2c1C(=O)NC21CCCCC1 [Compound 4ET-02-002] |  |  |  | MNK2 IC50 (MNK2): inactive; MNK1 IC50 (MNK1): inactive |
| Cc1cc(Nc2cc(NC(=O)C3CC3)ncn2)c(=O)n2c1C(=O)NC21CCCCC1 [Compound 4ET-02-003, N-(6-((8′-Methyl-1′,5′-dioxo-1′,5′-dihydro-2′H-spiro[cyclohexane-1,3′-imidazo[1,5-a]pyridin]-6′-yl)amino)pyrimidin-4-yl)cyclopropanecarboxamide] | 4.1 nM | 140 nM | 1.4 nM | microsomal CLint [3]: 2.31 µL/min/mg; half-life [3]: 9.98 h; microsomal CLint [4]: 3.75 µL/min/mg; half-life [4]: 6.17 h |
| Cc1cc(Nc2cc(NCCN3CCOCC3)ncn2)c(=O)n2c1C(=O)NC21CCCCC1 [Compound 4ET-02-005] | 10.4 nM | 45.1 nM | 22.5 nM | microsomal CLint [3]: 5.64 µL/min/mg; half-life [3]: 4.1 h; efflux ratio at 5 μM (P-gp (human MDR1, ABCB1)): 9.4; Papp A→B at 5 μM (P-gp (human MDR1, ABCB1)): 4.5 ×10⁻⁶ cm/s; Papp B→A at 5 μM (P-gp (human MDR1, ABCB1)): 42.2 ×10⁻⁶ cm/s; microsomal CLint [4]: 13.6 µL/min/mg; half-life [4]: 1.7 h |
| Cc1cc(Nc2cc(NCCC(=O)O)ncn2)c(=O)n2c1C(=O)NC21CCCCC1 [Compound 4ET-02-006, 3-((6-((8′-Methyl-1′,5′-dioxo-1′,5′-dihydro-2′H-spiro[cyclohexane-1,3′-imidazo[1,5-a]pyridin]-6′-yl)amino)pyrimidin-4-yl)amino)propanoic acid] | 14.4 nM | 346 nM |  | efflux ratio at 5 μM (P-gp (human MDR1, ABCB1)): 0.8; Papp A→B at 5 μM (P-gp (human MDR1, ABCB1)): 0.1 ×10⁻⁶ cm/s; Papp B→A at 5 μM (P-gp (human MDR1, ABCB1)): 0.1 ×10⁻⁶ cm/s |
| Cc1cc(Nc2cc(NC(=O)CN3CCOCC3)ncn2)c(=O)n2c1C(=O)NC21CCCCC1 [Compound 4ET-02-007, N-(6-((8′-Methyl-1′,5′-dioxo-1′,5′-dihydro-2′H-spiro[cyclohexane-1,3′-imidazo[1,5-a]pyridin]-6′-yl)amino)pyrimidin-4-yl)-2-morpholinoacetamide] | 3.6 nM | 89 nM |  | microsomal CLint [3]: 6.42 µL/min/mg; half-life [3]: 3.6 h; efflux ratio at 5 μM (P-gp (human MDR1, ABCB1)): 5.6; Papp A→B at 5 μM (P-gp (human MDR1, ABCB1)): 7.3 ×10⁻⁶ cm/s; Papp B→A at 5 μM (P-gp (human MDR1, ABCB1)): 40.8 ×10⁻⁶ cm/s; microsomal CLint ([2]; Mouse liver microsomes (*), read-out: CLint rodent): 8.7 µL/min/mg; half-life ([2]; Mouse liver microsomes (*), Table 11a, read-out: Rodent liver microsomes t1/2): 2.65 h |
| Cc1cc(Nc2cc(NC(=O)C(C)C)ncn2)c(=O)n2c1C(=O)NC2(C)C [Compound 4ET-03-001] | 11.9 nM | 119 nM | 47 nM |  |
| Cc1cc(Nc2cc(NC(=O)C3CC3)ncn2)c(=O)n2c1C(=O)NC2(C)C [Compound 4ET-03-002, N-(6-((3,3,8-Trimethyl-1,5-dioxo-1,2,3,5-tetrahydroimidazo[1,5-a]pyridin-6-yl)amino)pyrimidin-4-yl)cyclopropanecarboxamide] |  | 133 nM |  | IC50 ([1]; Homo sapiens, HEK293): 5.3 nM |

Second part, led by results:

| IC50 (MNK2) | IC50 (MNK1) | Structure (SMILES) | IC50 ([1]; Homo sapiens, HEK293, 2 h) | also measured |
| --- | --- | --- | --- | --- |
| 3 nM | 35 nM | Cc1cc(Nc2cc(NC(=O)C3CC3)ncn2)c(=O)n2c1C(=O)NC21Cc2ccccc2[C@@H]1O (stereo in doubt) [Compound 4ET-03-063, N-(6-((1′-Hydroxy-8-methyl-1,5-dioxo-1,1′,3′,5-tetrahydro-2H-spiro[imidazo[1,5-a]pyridine-3,2′-inden]-6-yl)amino)pyrimidin-4-yl)cyclopropanecarboxamide] | 17 nM | efflux ratio at 5 μM (P-gp (human MDR1, ABCB1)): 10.2; Papp A→B at 5 μM (P-gp (human MDR1, ABCB1)): 8.7 ×10⁻⁶ cm/s; Papp B→A at 5 μM (P-gp (human MDR1, ABCB1)): 64.9 ×10⁻⁶ cm/s; half-life [2, 5]: 3.7 h |
| 22.6 nM | 80.2 nM | Cc1cc(Nc2cc(NCCN3CCOCC3)ncn2)c(=O)n2c1C(=O)NC2(C)C [Compound 4ET-03-003] | 110 nM |  |
| 7.7 nM | 84.5 nM | Cc1cc(Nc2cc(NCCO)ncn2)c(=O)n2c1C(=O)NC2(C)C [Compound 4ET-03-004] | 86.6 nM |  |
| 5.9 nM | 64.6 nM | Cc1cc(Nc2cc(NCCN3CCOCC3)ncn2)c(=O)n2c1C(=O)NC21CCCC1 [Compound 4ET-03-006, 8′-Methyl-6′-((6-((2-morpholinoethyl)amino)pyrimidin-4-yl)amino)-2′H-spiro[cyclopentane-1,3′-imidazo[1,5-a]pyridine]-1′,5′-dione] | 53 nM |  |
| 4.9 nM | 96.7 nM | Cc1cc(Nc2cc(NCCO)ncn2)c(=O)n2c1C(=O)NC21CCCC1 [Compound 4ET-03-007, 6′-((6-((2-Hydroxyethyl)amino)pyrimidin-4-yl)amino)-8′-methyl-2′H-spiro[cyclopentane-1,3′-imidazo[1,5-a]pyridine]-1′,5′-dione] | 10 nM | efflux ratio at 5 μM (P-gp (human MDR1, ABCB1)): 6.3; Papp A→B at 5 μM (P-gp (human MDR1, ABCB1)): 2.4 ×10⁻⁶ cm/s; Papp B→A at 5 μM (P-gp (human MDR1, ABCB1)): 15.1 ×10⁻⁶ cm/s |
| 7.4 nM | 65.5 nM | Cc1cc(Nc2cc(NC(=O)C(C)C)ncn2)c(=O)n2c1C(=O)NC21CCOCC1 [Compound 4ET-03-008] | 52.6 nM |  |
| 84.8 nM | 382 nM | Cc1cc(Nc2cc(NCCN3CCOCC3)ncn2)c(=O)n2c1C(=O)NC21CCOCC1 [Compound 4ET-03-010] | 164 nM |  |
| 27.8 nM | 203 nM | Cc1cc(Nc2cc(NCCO)ncn2)c(=O)n2c1C(=O)NC21CCOCC1 [Compound 4ET-03-011] | 32.4 nM |  |
| 273 nM | 441 nM | Cc1cc(Nc2cc(NCCNS(C)(=O)=O)ncn2)c(=O)n2c1C(=O)NC2(C)C [Compound 4ET-03-012] |  |  |
| 32.8 nM | 107 nM | Cc1cc(Nc2cc(NCCNS(C)(=O)=O)ncn2)c(=O)n2c1C(=O)NC21CCOCC1 [Compound 4ET-03-014] |  |  |
| 4.3 nM | 128 nM | Cc1cc(Nc2cc(NC(=O)C3CC3)ncn2)c(=O)n2c1C(=O)NC2(C)c1cccc(Cl)c1 (stereo not shown) [Compound 4ET-03-035] | 8.7 nM |  |
| 5.65 nM | 118 nM | Cc1cc(Nc2cc(NC(=O)C3CC3)ncn2)c(=O)n2c1C(=O)NC21CCOc2ccc(Cl)cc21 (stereo not shown) [Compound 4ET-03-036] | 8.6 nM |  |
| 1.62 nM | 31.6 nM | CCC1=CC2(CCC1)NC(=O)c1c(C)cc(Nc3cc(NC(=O)C4CC4)ncn3)c(=O)n12 (stereo not shown) [Compound 4ET-03-039, N-(6-((3-Ethyl-8′-methyl-1′,5′-dioxo-1′,5′-dihydro-2′H-spiro[cyclohexane-1,3′-imidazo[1,5-a]pyridin]-2-en-6′-yl)amino)pyrimidin-4-yl)cyclopropanecarboxamide] | 2.6 nM |  |
| 5.7 nM | 118 nM | Cc1cc(Nc2cc(NC(=O)C3CC3)ncn2)c(=O)n2c1C(=O)NC21Cc2ccc(Cl)cc2C1 (stereo not shown) [Compound 4ET-03-054] | 8.6 nM |  |
